Results reported in ChEMBL document CHEMBL4831554, “Diverse, Potent, and Efficacious Inhibitors That Target the EED Subunit of the Polycomb Repressive Complex 2 Methyltransferase” (J Med Chem, 2021).

Experiments:
[1] = Intrinsic clearance in human liver microsomes at 1 uM preincubated with NADPH for 5 mins followed by compound addition and measured upto 30 mins by LC-MS/MS analysis; format: ADME, Microsome; details: read-out: CLH
[2] = Lipophilicity, logD of the compound in Octanol/phosphate buffer at pH 7.4 after 30 mins by shake-flask method; format: physicochemical
[3] = Apparent permeability of compound in human Caco-2 cells; format: ADME, cell-based
[4] = Clearance in rat at 1 mg/kg, po or 0.5 mg/kg, iv; format: ADME, organism-based; details: in vivo
[5] = Bioavailability in rat at 1 mg/kg, po or 0.5 mg/kg, iv; format: ADME, organism-based; details: in vivo
[6] = Volume of distribution at steady state in rat at 1 mg/kg, po or 0.5 mg/kg, iv; format: ADME, organism-based; details: in vivo, read-out: Vdss
[7] = Intrinsic clearance in human hepatocytes assessed per million cells at 1 uM measured upto 30 mins by HPLC analysis; format: ADME, cell-based, Hepatocyte; details: read-out: CLH

Row | microsomal CLint at 1 µM [1] | logD at 0.5 h [2] | SMILES | other results
1 | 32 µL/min/mg | 2.2 | CN(C)Cc1ccc2c(c1)CN(c1cnc(NCc3c(F)ccc4c3CCO4)c3cn[nH]c(=O)c13)C2=O | –
2 | < 3 µL/min/mg | 2 | O=C(Nc1cnc(NCc2c(F)ccc3c2CCO3)n2cnnc12)c1cccnc1 | –
3 | 10 µL/min/mg | 3 | O=C(Nc1cnc(NCc2c(F)ccc3c2CCO3)n2cnnc12)c1ccccc1 | –
4 | 21 µL/min/mg | 2.1 | CN(C)C(=O)c1cc(-c2cnc(NCc3c(F)ccc4c3CCO4)c3cn[nH]c(=O)c23)n(C)n1 | –
5 | 23 µL/min/mg | 1.8 | O=C1CCCN1c1cnc(NCc2c(F)ccc3c2CCO3)c2cn[nH]c(=O)c12 | –
6 | 8 µL/min/mg | 2.5 | Cc1ncccc1-c1cnc(NCc2c(F)ccc3c2CCO3)c2n[nH]c(=O)n12 | –
7 | 27 µL/min/mg | 2.8 | Cc1nn(C)cc1-c1cnc(NCc2c(F)ccc3c2CCO3)c2cn[nH]c(=O)c12 | –
8 | 207 µL/min/mg | 2.9 | CC(=O)N1CCC(c2cnc(NCc3c(F)ccc4c3CCO4)c3cn[nH]c(=O)c23)CC1 | –
9 | < 3 µL/min/mg | 1.4 | COCCC(=O)Nc1cnc(NCc2c(F)ccc3c2CCO3)n2cnnc12 | –
10 | < 3 µL/min/mg | 1.8 | C[C@@H]1CC(=O)N(c2cnc(NCc3c(F)ccc4c3CCO4)n3cnnc23)C1 | –
11 | 5 µL/min/mg | 1.6 | O=C1c2cnccc2CN1c1cnc(NCc2c(F)ccc3c2CCO3)n2cnnc12 | –
12 | 24 µL/min/mg | 3 | Cc1cc(-c2cnc(NCc3c(F)ccc4c3CCO4)c3cn[nH]c(=O)c23)n(C)n1 | –
13 | 24 µL/min/mg | 2.7 | O=C1Oc2ccccc2CN1c1cnc(NCc2c(F)ccc3c2CCO3)n2cnnc12 | –
14 | 55 µL/min/mg | 3.6 | CN(c1ccccc1)c1cnc(NCc2c(F)ccc3c2CCO3)n2cnnc12 | –
15 | 5.7 µL/min/mg | 1.6 | CN(c1cn(C)cn1)c1cnc(NCc2c(F)ccc3c2CCO3)n2cnnc12 | –
16 | 18 µL/min/mg | 3.5 | Fc1ccc2c(c1CNc1ncc(Oc3ccccc3)c3nncn13)CCO2 | –
17 | 10 µL/min/mg | 1.9 | Cc1ncc(-c2cnc(NCc3c(F)ccc4c3CCO4)c3cn[nH]c(=O)c23)n1C | –
18 | 24 µL/min/mg | 2.5 | CNC(=O)c1ncc(-c2cnc(NCc3c(F)ccc4c3CCO4)c3cn[nH]c(=O)c23)n1C | –
19 | 151 µL/min/mg | 2.2 | Cc1ncccc1-c1cnc(NCc2c(F)ccc3c2CCO3)c2nn(CC#N)c(=O)n12 | –
20 | 13 µL/min/mg | 2 | Cc1nc(CN(C)C)ccc1-c1cnc(NCc2c(F)ccc3c2CCO3)c2cn[nH]c(=O)c12 | Papp ([3]; read-out: Papp): < 0.6 ×10⁻⁶ cm/s
21 | > 300 µL/min/mg | 2.4 | CN(C(=O)c1ccccc1)c1cnc(NCc2c(F)ccc3c2CCO3)n2cnnc12 | –
22 | 11 µL/min/mg | 2.1 | CN(c1ncco1)c1cnc(NCc2c(F)ccc3c2CCO3)n2cnnc12 | clearance [4]: 29 mL/min/kg; bioavailability [5]: 61%; Vd [6]: 3.1 L/kg; hepatocyte CLint at 1 µM [7]: 1.4 µL/min/1e6 cells
23 | < 3 µL/min/mg | 2.1 | CNC(=O)c1cc(-c2cnc(NCc3c(F)ccc4c3CCO4)c3cn[nH]c(=O)c23)n(C)n1 | –
24 | 8 µL/min/mg | 2.1 | Cc1nccn1-c1cnc(NCc2c(F)ccc3c2CCO3)c2cn[nH]c(=O)c12 | –
25 | 41 µL/min/mg | 3 | Cc1ncccc1-c1cnc(NCc2c(F)ccc3c2CCO3)c2cn[nH]c(=O)c12 | hepatocyte CLint at 1 µM [7]: 4.6 µL/min/1e6 cells

Row | microsomal CLint at 1 µM [1] | logD at 0.5 h [2] | SMILES | other results
26 | 13 µL/min/mg | 1.8 | CN(C)Cc1ccc(C(=O)Nc2cnc(NCc3c(F)ccc4c3CCO4)n3cnnc23)cc1 | –
27 | 19 µL/min/mg | 2.1 | Cc1nc(C(=O)N(C)C)ccc1-c1cnc(NCc2c(F)ccc3c2CCO3)c2cn[nH]c(=O)c12 | clearance [4]: 54 mL/min/kg; bioavailability [5]: 22%; Vd [6]: 1.9 L/kg; Papp ([3]; read-out: Papp): 1.7 ×10⁻⁶ cm/s; hepatocyte CLint at 1 µM [7]: < 1.3 µL/min/1e6 cells
28 | 36 µL/min/mg | 3 | Cc1ncccc1-c1cnc(NCc2c(F)ccc3c2CCO3)n2c(=O)[nH]nc12 | –
29 | 13 µL/min/mg | 2.7 | O=C1c2ccccc2CN1c1cnc(NCc2c(F)ccc3c2CCO3)n2cnnc12 | hepatocyte CLint at 1 µM [7]: 2.7 µL/min/1e6 cells
30 | 14 µL/min/mg | 4.1 | O=C(Nc1ccccc1)c1cnc(NCc2c(F)ccc3c2CCO3)n2cnnc12 | –
31 | 14 µL/min/mg | 2.6 | Cn1nccc1-c1cnc(NCc2c(F)ccc3c2CCO3)c2cn[nH]c(=O)c12 | –
32 | 11 µL/min/mg | 1.8 | CN(c1ccn(C)n1)c1cnc(NCc2c(F)ccc3c2CCO3)n2cnnc12 | clearance [4]: 29 mL/min/kg; bioavailability [5]: 67%; Vd [6]: 3 L/kg; hepatocyte CLint at 1 µM [7]: < 1 µL/min/1e6 cells
33 | < 3 µL/min/mg | 1.3 | O=C1CCCN1c1cnc(NCc2c(F)ccc3c2CCO3)n2cnnc12 | –
34 | 21 µL/min/mg | 2.7 | Cn1cc(-c2cnc(NCc3c(F)ccc4c3CCO4)c3cn[nH]c(=O)c23)cn1 | –
35 | 23 µL/min/mg | 2.9 | CNC(=O)c1ccc(-c2cnc(NCc3c(F)ccc4c3CCO4)c3cn[nH]c(=O)c23)c(C)n1 | clearance [4]: 24 mL/min/kg; bioavailability [5]: 53%; Vd [6]: 2.7 L/kg; Papp ([3]; read-out: Papp): 54.1 ×10⁻⁶ cm/s; hepatocyte CLint at 1 µM [7]: 3 µL/min/1e6 cells
36 | 8.9 µL/min/mg | 2.2 | CN(c1cnn(C)c1)c1cnc(NCc2c(F)ccc3c2CCO3)n2cnnc12 | –
37 | 16 µL/min/mg | 2 | CC1(C)CC(=O)N(c2cnc(NCc3c(F)ccc4c3CCO4)n3cnnc23)C1 | –
38 | < 3 µL/min/mg | 1.8 | C[C@H]1CC(=O)N(c2cnc(NCc3c(F)ccc4c3CCO4)n3cnnc23)C1 | –
39 | 21 µL/min/mg | 2.8 | Cc1ncccc1-c1cnc(NCc2c(F)ccc3c2CCO3)c2ncc(=O)[nH]c12 | –
40 | 20 µL/min/mg | 3.3 | Fc1ccc2c(c1CNc1ncc(Nc3ccccc3)c3nncn13)CCO2 | –
41 | 16 µL/min/mg | 2.7 | O=C1Cc2ccccc2CN1c1cnc(NCc2c(F)ccc3c2CCO3)n2cnnc12 | –
42 | 80 µL/min/mg | 2.6 | CN(c1cccnc1)c1cnc(NCc2c(F)ccc3c2CCO3)n2cnnc12 | –
43 | 20 µL/min/mg | 3.1 | COc1ccccc1C(=O)Nc1cnc(NCc2c(F)ccc3c2CCO3)n2cnnc12 | –
44 | 15 µL/min/mg | 2.5 | Cc1ncccc1-c1cnc(NCc2c(F)ccc3c2CCO3)n2cnnc12 | clearance [4]: 19 mL/min/kg; bioavailability [5]: 74%; Vd [6]: 3.7 L/kg; Papp [3]: 38.7 10^-6 cm/s; hepatocyte CLint at 1 µM [7]: 2.6 µL/min/1e6 cells
45 | 19 µL/min/mg | 1.6 | CN(C)Cc1ccc2c(c1)CN(c1cnc(NCc3c(F)ccc4c3CCO4)n3cnnc13)C2=O | –
46 | 5.2 µL/min/mg | 1.4 | CN(c1ccncc1)c1cnc(NCc2c(F)ccc3c2CCO3)n2cnnc12 | –
47 | 18 µL/min/mg | 1.6 | O=C1c2ccc(OCCN3CCCC3)cc2CN1c1cnc(NCc2c(F)ccc3c2CCO3)n2cnnc12 | clearance [4]: 35 mL/min/kg; Vd [6]: 6.5 L/kg; Papp ([3]; read-out: Papp): < 0.6 ×10⁻⁶ cm/s
48 | < 3 µL/min/mg | 1.9 | O=C1CC2(CC2)CN1c1cnc(NCc2c(F)ccc3c2CCO3)n2cnnc12 | clearance [4]: 23 mL/min/kg; bioavailability [5]: 68%; Vd [6]: 1.4 L/kg; hepatocyte CLint at 1 µM [7]: 3.5 µL/min/1e6 cells
49 | 11 µL/min/mg | 2.4 | Cc1nc(CO)ccc1-c1cnc(NCc2c(F)ccc3c2CCO3)c2cn[nH]c(=O)c12 | –
50 | 62 µL/min/mg | 2.4 | CN(c1ccn(C)n1)c1cnc(NCc2c(F)ccc3c2CCO3)c2cn[nH]c(=O)c12 | –
